Data published in patent US5925769A, “Acetylenic 1,5-diarylpyrazoles as antiinflammatory agents” (Ortho Pharmaceutical, Corp., priority 1998, dated 1999).

Experiments:
[1] = biological target: T1, CO (Rattus norvegicus, UniProt Q63921); assay: Procedure II: CO activity in broken RBL-1 cells (homogenate supernatant); format: biochemical; settings: RBL-1 broken cell supernatant; read-out: Proc. II CO IC50
T1 construct: the supernatant was saved as the source of enzymes; endogenous in cells; host or cells: RBL-1 (rat basophilic leukemia) cells
T1 sequence (Q63921 27-602): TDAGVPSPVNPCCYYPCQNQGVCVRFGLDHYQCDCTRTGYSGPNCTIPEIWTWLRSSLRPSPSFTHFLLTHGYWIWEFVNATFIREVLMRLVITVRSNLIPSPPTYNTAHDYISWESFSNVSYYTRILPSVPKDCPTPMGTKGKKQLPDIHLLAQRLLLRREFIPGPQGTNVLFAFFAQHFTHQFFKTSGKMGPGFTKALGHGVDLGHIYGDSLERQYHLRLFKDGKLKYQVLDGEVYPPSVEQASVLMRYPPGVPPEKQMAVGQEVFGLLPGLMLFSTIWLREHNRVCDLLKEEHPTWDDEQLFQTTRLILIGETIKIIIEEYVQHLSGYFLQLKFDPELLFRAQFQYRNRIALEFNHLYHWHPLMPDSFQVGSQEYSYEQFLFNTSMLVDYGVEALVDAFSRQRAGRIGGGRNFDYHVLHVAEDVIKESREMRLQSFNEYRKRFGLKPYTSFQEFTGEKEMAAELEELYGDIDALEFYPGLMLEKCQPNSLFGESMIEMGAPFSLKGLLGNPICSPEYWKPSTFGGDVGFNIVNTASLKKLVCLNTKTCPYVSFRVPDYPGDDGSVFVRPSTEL
How it was run: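 Supernatant from rat RBL-1 homogenate (9,220×g) was pre-incubated 5 min at 37 °C with 2 mM CaCl2 and compound or 1% DMSO, then with 1-^14C-arachidonic acid for 20 min at 37 °C.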

[2] = biological target: T2, Sheep seminal vesicle (SSV) cyclooxygenase (Ovis aries, UniProt P05979); assay: Procedure I: inhibition of sheep seminal vesicle (SSV) cyclooxygenase; format: biochemical; settings: SSV cyclooxygenase; read-out: Proc. I IC50
T2 construct: Sheep seminal vesicle (SSV) cyclooxygenase (95% pure); purchased Biomol (Plymouth Meeting, PA); host or cells: sheep seminal vesicle
T2 sequence (P05979 25-600): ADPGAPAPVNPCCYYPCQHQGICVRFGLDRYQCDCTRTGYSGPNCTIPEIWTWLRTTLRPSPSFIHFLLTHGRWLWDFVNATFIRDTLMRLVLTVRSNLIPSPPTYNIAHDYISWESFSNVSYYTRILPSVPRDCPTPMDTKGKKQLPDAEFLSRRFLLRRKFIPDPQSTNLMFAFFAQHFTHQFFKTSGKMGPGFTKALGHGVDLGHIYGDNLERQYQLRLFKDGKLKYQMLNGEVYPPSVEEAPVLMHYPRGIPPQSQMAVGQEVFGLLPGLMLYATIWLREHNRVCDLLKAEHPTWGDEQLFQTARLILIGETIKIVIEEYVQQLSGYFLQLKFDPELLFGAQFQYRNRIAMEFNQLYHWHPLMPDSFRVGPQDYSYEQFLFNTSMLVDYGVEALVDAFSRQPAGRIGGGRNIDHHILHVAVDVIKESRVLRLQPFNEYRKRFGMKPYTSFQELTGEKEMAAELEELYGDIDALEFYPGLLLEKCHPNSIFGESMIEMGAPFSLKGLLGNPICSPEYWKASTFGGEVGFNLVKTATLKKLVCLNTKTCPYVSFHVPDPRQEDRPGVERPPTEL
How it was run: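 Turnover of [1-14C]-arachidonic acid by SSV cyclooxygenase ran 20 min after a 5 min preincubation at 37° C with test compound. Products (PGD2, PGE2, etc.) were extracted, resolved by TLC and quantified by radio-imaging; inhibition came from comparing curve areas with and without compound.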

IC50 [1]: 310 nM | IC50 [2]: 1020 nM
Structure (SMILES): COc1ccc(-n2nc(C#CCN(O)C(N)=O)cc2-c2ccc(C)cc2)cc1 [Cpd 1, N-Hydroxy-N-(1(1-(4-methoxyphenyl)-5-(4-methylphenyl)pyrazol-3-yl)-1-propyn-3-yl)urea]
